Reference: patent US7365053B2, “Selective N-acylation of A82846 glygopeptides analogs” (priority 2000, dated 2008)
In brackets after ≈: the same amount, converted by molar mass.

How the values were obtained:
[1] = system: vancomycin-sensitive enterococci; test: In vitro activity against enterococci, broth microdilution; assay type: cell-based, Enterococcus faecium and Enterococcus faecalis; details: representative vancomycin-sensitive enterococci (E. faecium and E. faecalis); BHI medium
Procedure: (§1) The compounds of the present invention have in vitro activity against Gram-positive pathogenic bacteria. The antibacterial activity of the present compounds is illustrated in Tables III and IV. The minimal inhibitory concentrations (MICs) were determined using a standard broth micro-dilution assay. Table IV presents a comparison of the activity of illustrative compounds against representative vancomycin-resistant and vancomycin-sensitive enterococci (Enterococcus faecium and Enterococcus faecalis), mean geometric MIC (mcg/mL), as determined by the standard broth microdilution assay.
(§2) Assays for antimicrobial activity were performed using microbroth susceptibility testing methods as described by the NCCLS (National Committee for Clinical Laboratories Standards. 1990. Approved standard M7-A2. Methods for dilution antimicrobial susceptibility testing for bacteria that grow aerobically, 2 ed., Villanova Pa.). Brain-heart infusion medium (BHI) was used for testing of enterococci, and NCCLS recommendations for medium were followed for other bacteria.

[2] = system: vancomycin-resistant enterococci; test: as above; assay type: cell-based, Enterococcus faecium and Enterococcus faecalis; details: representative vancomycin-resistant enterococci (E. faecium and E. faecalis); BHI medium
Procedure: as §1, §2

[3] = system: Staphylococcus aureus 447; test: Broth micro-dilution MIC; assay type: cell-based
Procedure: as §1, §2

[4] = system: Staphylococcus aureus 489; test: Broth micro-dilution MIC; assay type: cell-based
Procedure: as §1, §2

[5] = system: Streptococcus pneumoniae P1; test: Broth micro-dilution MIC; assay type: cell-based
Procedure: as §1, §2

[6] = system: Escherichia coli EC14; test: Broth micro-dilution MIC; assay type: cell-based
Procedure: as §1, §2

[7] = system: Enterococcus gallinarum 245; test: Broth micro-dilution MIC; assay type: cell-based; details: BHI medium
Procedure: as §1, §2

[8] = system: Staphylococcus aureus SA1199A; test: Broth micro-dilution MIC; assay type: cell-based
Procedure: as §1, §2

[9] = system: Staphylococcus aureus 491; test: Broth micro-dilution MIC; assay type: cell-based
Procedure: as §1, §2

[10] = system: Staphylococcus haemolyticus 415; test: Broth micro-dilution MIC; assay type: cell-based
Procedure: as §1, §2

[11] = system: Staphylococcus aureus SA1199B; test: Broth micro-dilution MIC; assay type: cell-based
Procedure: as §1, §2

[12] = system: Enterococcus faecium 180; test: Broth micro-dilution MIC; assay type: cell-based; details: BHI medium
Procedure: as §1, §2

[13] = system: Streptococcus pyogenes C203; test: Broth micro-dilution MIC; assay type: cell-based
Procedure: as §1, §2

[14] = system: Staphylococcus aureus X778; test: Broth micro-dilution MIC; assay type: cell-based
Procedure: as §1, §2

[15] = system: Staphylococcus aureus SA1199; test: Broth micro-dilution MIC; assay type: cell-based
Procedure: as §1, §2

[16] = system: Enterococcus faecalis 2041; test: Broth micro-dilution MIC; assay type: cell-based; details: BHI medium
Procedure: as §1, §2

[17] = system: Enterococcus faecalis 276; test: Broth micro-dilution MIC; assay type: cell-based; details: BHI medium
Procedure: as §1, §2

[18] = system: Staphylococcus haemolyticus 105; test: Broth micro-dilution MIC; assay type: cell-based
Procedure: as §1, §2

[19] = system: Haemophilus influenzae RD; test: Broth micro-dilution MIC; assay type: cell-based
Procedure: as §1, §2

[20] = system: Staphylococcus epidermidis 270; test: Broth micro-dilution MIC; assay type: cell-based
Procedure: as §1, §2

[21] = system: Staphylococcus aureus X400; test: Broth micro-dilution MIC; assay type: cell-based
Procedure: as §1, §2

[22] = system: Enterococcus faecium 180-1; test: Broth micro-dilution MIC; assay type: cell-based; details: BHI medium
Procedure: as §1, §2

[23] = system: Staphylococcus aureus S13E; test: Broth micro-dilution MIC; assay type: cell-based
Procedure: as §1, §2

[24] = system: Staphylococcus aureus 446; test: Broth micro-dilution MIC; assay type: cell-based
Procedure: as §1, §2

SMILES	Mean geometric MIC, Vancomycin Sensitive Strains [1]	Mean geometric MIC, Vancomycin Resistant Strains [2]	MIC [3]	MIC [4]	MIC [5]	MIC [6]	MIC [7]	MIC [8]	MIC [9]	MIC [10]	MIC [11]	MIC [12]	MIC [13]	MIC [14]	MIC [15]	MIC [16]	MIC [17]	MIC [18]	MIC [19]	MIC [20]	further results
CNC(CC(C)C)C(=O)NC1C(=O)NC(CC(N)=O)C(=O)NC2C(=O)NC3C(=O)NC(C(=O)NC(C(=O)O)c4cc(O)cc(O)c4-c4cc3ccc4O)C(OC3CC(C)(NC(=O)c4ccc(-c5ccccc5)cc4)C(O)C(C)O3)c3ccc(c(Cl)c3)Oc3cc2cc(c3OC2OC(CO)C(O)C(O)C2OC2CC(C)(N)C(O)C(C)O2)Oc2ccc(cc2Cl)C1O (stereo not drawn) [Example 2]	0.38 µg/mL	>25 µg/mL	32 µg/mL (≈ 18.1 µM)	0.5 µg/mL (≈ 0.282 µM)	≦.06 μg/ml	>64 µg/mL	>64 µg/mL	1 µg/mL (≈ 0.564 µM)	1 µg/mL (≈ 0.564 µM)	>64 µg/mL	2 µg/mL (≈ 1.13 µM)	32 µg/mL (≈ 18.1 µM)	≦.06 μg/ml	2 µg/mL (≈ 1.13 µM)	4 µg/mL (≈ 2.26 µM)	1 µg/mL (≈ 0.564 µM)	1 µg/mL (≈ 0.564 µM)	2 µg/mL (≈ 1.13 µM)	>64 µg/mL	32 µg/mL (≈ 18.1 µM)	MIC [21]: 2 µg/mL (≈ 1.13 µM); MIC [22]: 1 µg/mL (≈ 0.564 µM); MIC [23]: 4 µg/mL (≈ 2.26 µM); MIC [24]: 8 µg/mL (≈ 4.51 µM)
CC(C)CC(C(=O)NC1C(=O)NC(CC(N)=O)C(=O)NC2C(=O)NC3C(=O)NC(C(=O)NC(C(=O)O)c4cc(O)cc(O)c4-c4cc3ccc4O)C(OC3CC(C)(N)C(O)C(C)O3)c3ccc(c(Cl)c3)Oc3cc2cc(c3OC2OC(CO)C(O)C(O)C2OC2CC(C)(N)C(O)C(C)O2)Oc2ccc(cc2Cl)C1O)N(C)C(=O)c1ccc(-c2ccccc2)cc1 (stereo not drawn) [Example 3]	0.19 µg/mL	4 µg/mL	16 µg/mL (≈ 9.03 µM)	0.5 µg/mL (≈ 0.282 µM)	≦.06 μg/ml	>64 µg/mL	2 µg/mL (≈ 1.13 µM)	1 µg/mL (≈ 0.564 µM)	0.5 µg/mL (≈ 0.282 µM)	2 µg/mL (≈ 1.13 µM)	2 µg/mL (≈ 1.13 µM)	0.25 µg/mL (≈ 0.141 µM)	≦.06 μg/ml	1 µg/mL (≈ 0.564 µM)	1 µg/mL (≈ 0.564 µM)	≦.06 μg/ml	0.125 µg/mL (≈ 0.0705 µM)	4 µg/mL (≈ 2.26 µM)	>64 µg/mL	2 µg/mL (≈ 1.13 µM)	MIC [21]: 0.5 µg/mL (≈ 0.282 µM); MIC [22]: ≦.06 μg/ml; MIC [23]: 0.25 µg/mL (≈ 0.141 µM); MIC [24]: 0.5 µg/mL (≈ 0.282 µM)
CNC(CC(C)C)C(=O)NC1C(=O)NC(CC(N)=O)C(=O)NC2C(=O)NC3C(=O)NC(C(=O)NC(C(=O)O)c4cc(O)cc(O)c4-c4cc3ccc4O)C(OC3CC(C)(N)C(O)C(C)O3)c3ccc(c(Cl)c3)Oc3cc2cc(c3OC2OC(CO)C(O)C(O)C2OC2CC(C)(NC(=O)c3ccc(-c4ccc(Cl)cc4)cc3)C(O)C(C)O2)Oc2ccc(cc2Cl)C1O (stereo not drawn) [Example 4]	0.093 µg/mL	3.4 µg/mL	4 µg/mL (≈ 2.21 µM)	0.25 µg/mL (≈ 0.138 µM)	0.125 µg/mL (≈ 0.0692 µM)	>64 µg/mL	4 µg/mL (≈ 2.21 µM)	0.25 µg/mL (≈ 0.138 µM)	0.5 µg/mL (≈ 0.277 µM)	4 µg/mL (≈ 2.21 µM)	0.5 µg/mL (≈ 0.277 µM)	≦.06 μg/ml	0.125 µg/mL (≈ 0.0692 µM)	0.25 µg/mL (≈ 0.138 µM)	0.5 µg/mL (≈ 0.277 µM)	≦.06 μg/ml	0.125 µg/mL (≈ 0.0692 µM)	1 µg/mL (≈ 0.553 µM)	0.25 µg/mL (≈ 0.138 µM)	2 µg/mL (≈ 1.11 µM)	MIC [21]: 0.25 µg/mL (≈ 0.138 µM); MIC [22]: ≦.06 μg/ml; MIC [23]: 0.5 µg/mL (≈ 0.277 µM); MIC [24]: 1 µg/mL (≈ 0.553 µM)
CNC(CC(C)C)C(=O)NC1C(=O)NC(CC(N)=O)C(=O)NC2C(=O)NC3C(=O)NC(C(=O)NC(C(=O)O)c4cc(O)cc(O)c4-c4cc3ccc4O)C(OC3CC(C)(NC(=O)c4ccc(-c5ccc(Cl)cc5)cc4)C(O)C(C)O3)c3ccc(c(Cl)c3)Oc3cc2cc(c3OC2OC(CO)C(O)C(O)C2OC2CC(C)(N)C(O)C(C)O2)Oc2ccc(cc2Cl)C1O (stereo not drawn) [Example 5]	0.29 µg/mL	19 µg/mL	2 µg/mL (≈ 1.11 µM)	≦.06 μg/ml	≦.06 μg/ml	>64 µg/mL	8 µg/mL (≈ 4.43 µM)	≦.06 μg/ml	≦.06 μg/ml	8 µg/mL (≈ 4.43 µM)	0.25 µg/mL (≈ 0.138 µM)	1 µg/mL (≈ 0.553 µM)	≦.06 μg/ml	0.5 µg/mL (≈ 0.277 µM)	0.5 µg/mL (≈ 0.277 µM)	≦.06 μg/ml	≦.06 μg/ml	0.5 µg/mL (≈ 0.277 µM)	>64 µg/mL	4 µg/mL (≈ 2.21 µM)	MIC [21]: ≦.06 μg/ml; MIC [22]: ≦.06 μg/ml; MIC [23]: 0.5 µg/mL (≈ 0.277 µM); MIC [24]: 0.5 µg/mL (≈ 0.277 µM)
CCCCCCCCOc1ccc(C(=O)NC2(C)CC(OC3C(Oc4c5cc6cc4Oc4ccc(cc4Cl)C(OC4CC(C)(N)C(O)C(C)O4)C4NC(=O)C(NC(=O)C6NC(=O)C(CC(N)=O)NC(=O)C(NC(=O)C(CC(C)C)NC)C(O)c6ccc(c(Cl)c6)O5)c5ccc(O)c(c5)-c5c(O)cc(O)cc5C(C(=O)O)NC4=O)OC(CO)C(O)C3O)OC(C)C2O)cc1 (stereo not drawn) [Example 6]	1.2 µg/mL	11.3 µg/mL	8 µg/mL (≈ 4.38 µM)	1 µg/mL (≈ 0.548 µM)	0.25 µg/mL (≈ 0.137 µM)	>64 µg/mL	8 µg/mL (≈ 4.38 µM)	0.25 µg/mL (≈ 0.137 µM)	2 µg/mL (≈ 1.1 µM)	8 µg/mL (≈ 4.38 µM)	2 µg/mL (≈ 1.1 µM)	0.25 µg/mL (≈ 0.137 µM)	0.125 µg/mL (≈ 0.0685 µM)	2 µg/mL (≈ 1.1 µM)	4 µg/mL (≈ 2.19 µM)	0.25 µg/mL (≈ 0.137 µM)	1 µg/mL (≈ 0.548 µM)	0.5 µg/mL (≈ 0.274 µM)	>64 µg/mL	8 µg/mL (≈ 4.38 µM)	MIC [21]: 4 µg/mL (≈ 2.19 µM); MIC [22]: 0.125 µg/mL (≈ 0.0685 µM); MIC [23]: 8 µg/mL (≈ 4.38 µM); MIC [24]: 2 µg/mL (≈ 1.1 µM)
